Patent US20250089707A1, “ECO-FRIENDLY QUARANTINE COMPOSITION HAVING FUNCTION OF KILLING PHOSPHOLIPID ENVELOPED VIRUS” (priority 2022, published 2025)

What was measured:
[1] = test system: human epithelial keratinocyte cells (HaCaT); assay: Cytotoxicity, MTT, HaCaT; settings: 24 hours treatment
Staphylococcus aureus = assay: Antibacterial activity, paper disc method
[2] = test system: human monocyte cells (THP-1); assay: Cytotoxicity, MTT, THP-1; settings: THP-1, 24 hours treatment
Streptococcus mutans = assay: Antibacterial activity, paper disc method
[3] = test system: Staphylococcus epidermidis; assay: Antibacterial activity, paper disc method
Bacillus subtilis = assay: Antibacterial activity, paper disc method
Pseudomonas aeruginosa = assay: Antibacterial activity, paper disc method
[4] = test system: human bronchial epithelial cells (BEAS-2B); assay: Cytotoxicity, MTT, BEAS-2B; settings: 24 hours treatment
Salmonella typhimurium = assay: Antibacterial activity, paper disc method
Escherichia coli = assay: Antibacterial activity, paper disc method

Q: For CCCCCCCCCCCCCCCCCC(=O)[O-].[Na+] [Example P-3, Sodium stearate], which “IC50 value (%)” value [1] is on record?
A: 0.005292%

Q: What about the MIC (Staphylococcus aureus) of the same compound?
A: ≥100 μg/50 μl

Q: What about the “IC50 value (%)” value [2] of the same compound?
A: 0.4165%

Q: And the MIC (Streptococcus mutans)?
A: ≥100 μg/50 μl

Q: What about the MIC [3] of the same compound?
A: ≥100 μg/50 μl

Q: And the MIC (Bacillus subtilis)?
A: ≥100 μg/50 μl

Q: And the MIC (Pseudomonas aeruginosa)?
A: ≥100 μg/50 μl

Q: And the “IC50 value (%)” value [4]?
A: 0.00969%

Q: And the MIC (Salmonella typhimurium)?
A: ≥100 μg/50 μl

Q: And the MIC (Escherichia coli)?
A: ≥100 μg/50 μl
